Measured values from ChEMBL document CHEMBL3244056, “Synthesis and some pharmacological properties of [4-threonine, 7-glycine]oxytocin, [1-(L-2-hydroxy-3-mercaptopropanoic acid), 4-threonine, 7-glycine]oxytocin (hydroxy[Thr4, Gly7]oxytocin), and [7-Glycine]oxytocin, peptides with high oxytocic-antidiuretic selectivity” (J Med Chem, 1977).
Starred links: 1 amine or outer side, 2 acyl side, 3 side chain; linkers in the order of their positions; H or OH if unused. Positions of bridges follow the written chain, without caps; N, C: chain ends. Residues, ends and D or L forms follow the SMILES beside them. X1 = O=C([C@H](O)CS[*:2])[*:1]

What was measured:
[1] = Oxytocic potency in rat by uterus assay; format: functional
[2] = Oxytocic potency in rat by uterus assay in presence of 0.5 mM Mg2+; format: functional
[3] = Oxytocic potency in rat by mammary strip assay; format: functional
Rattus norvegicus [4] = species on record: Rattus norvegicus; experiment: Oxytocic potency in rat assessed as milk ejection; format: functional
Rattus norvegicus [5] = experiment: Antidiuretic activity in iv dosed rat; format: ADME, organism-based, Urine; details: in vivo
Rattus norvegicus [6] = species on record: Rattus norvegicus; experiment: Vasopressor activity in rat; format: ADME, organism-based; details: in vivo
Rattus norvegicus [7] = species on record: Rattus norvegicus; experiment: Ratio of oxytocic potency to antidiuretic activity in rat; design: species or system Urine
[8] = Retardation factor, Rf value of the compound in butan-1-ol-acetic acid-water (4:1:5 v/v, upper phase) solvent system; format: physicochemical; details: buffer
[9] = Retardation factor, Rf value of the compound in butan-1-ol-acetic acid-water-ethyl acetate (1:1:1:1 v/v) solvent system; format: physicochemical; details: buffer
[10] = Retardation factor, Rf value of the compound in butan-1-ol-water (3.5% in acetic acid, 1.5% in pyridine) (1:1 v/v,upper phase) solvent system; format: physicochemical; details: buffer
[11] = Retardation factor, Rf value of the compound in butan-1-ol-acetic acid-water-pyridine (15:3:3:10v/v) solvent system; format: physicochemical; details: buffer
Oryctolagus cuniculus = species on record: Oryctolagus cuniculus; experiment: Oxytocic potency in rabbit assessed as milk ejection; format: functional

SMILES	Activity (Rattus norvegicus [5]) [U/mg]	Activity (Rattus norvegicus [6]) [U/mg]	Rf [8]	Rf [9]	Rf [10]	Rf [11]	Activity [1] [U/mg]	Activity [2] [U/mg]	Activity [3] [U/mg]	Activity (Rattus norvegicus [4]) [U/mg]	Ratio (Rattus norvegicus [7])	Activity (Oryctolagus cuniculus) [U/mg]
CC[C@H](C)[C@@H]1NC(=O)[C@H](Cc2ccc(O)cc2)NC(=O)[C@@H](N)CSSC[C@@H](C(=O)NCC(=O)N[C@@H](CC(C)C)C(=O)NCC(N)=O)NC(=O)[C@H](CC(N)=O)NC(=O)[C@H](CCC(N)=O)NC1=O (H-CYIQNCGLG-NH2; disulfide 1-6)	0.0056	< 0.01	0.3	0.74	0.17	0.75	65	965	478	392	16600	–
CC[C@H](C)[C@@H]1NC(=O)[C@H](Cc2ccc(O)cc2)NC(=O)[C@H](O)CSSC[C@@H](C(=O)N2CCC[C@H]2C(=O)N[C@@H](CC(C)C)C(=O)NCC(N)=O)NC(=O)[C@H](CC(N)=O)NC(=O)[C@H]([C@@H](C)O)NC1=O (YITNCPLG-NH2; linker N-5 via X1)	5.3	4.92	–	–	–	–	4179	937	378	808	790	–
CC[C@H](C)[C@@H]1NC(=O)[C@H](Cc2ccc(O)cc2)NC(=O)[C@@H](N)CSSC[C@@H](C(=O)N2CCC[C@H]2C(=O)N[C@@H](CC(C)C)C(=O)NCC(N)=O)NC(=O)[C@H](CC(N)=O)NC(=O)[C@H]([C@@H](C)O)NC1=O (H-CYITNCPLG-NH2; disulfide 1-6)	1.8	0.43	–	–	–	–	923	719	–	543	510	–
CC[C@H](C)[C@@H]1NC(=O)[C@H](Cc2ccc(O)cc2)NC(=O)[C@@H](N)CSSC[C@@H](C(=O)N2CCC[C@H]2C(=O)N[C@@H](CC(C)C)C(=O)NCC(N)=O)NC(=O)[C@H](CC(N)=O)NC(=O)[C@H](CCC(N)=O)NC1=O [OXYTOCIN]	4	–	–	–	–	–	520	486	533	–	–	543

The next lines start with results.

Activity (Rattus norvegicus [5]) [U/mg]	Activity (Rattus norvegicus [6]) [U/mg]	Rf [8]	Rf [9]	Rf [10]	Rf [11]	SMILES	Activity [1] [U/mg]	Activity [2] [U/mg]	Activity [3] [U/mg]	Activity (Rattus norvegicus [4]) [U/mg]	Ratio (Rattus norvegicus [7])	Activity (Oryctolagus cuniculus) [U/mg]
0.002	< 0.01	0.37	0.85	0.27	0.83	CC[C@H](C)[C@@H]1NC(=O)[C@H](Cc2ccc(O)cc2)NC(=O)[C@@H](N)CSSC[C@@H](C(=O)NCC(=O)N[C@@H](CC(C)C)C(=O)NCC(N)=O)NC(=O)[C@H](CC(N)=O)NC(=O)[C@H]([C@@H](C)O)NC1=O (H-CYITNCGLG-NH2; disulfide 1-6)	166	857	490	802	83000	–
0.004	< 0.01	0.56	0.89	0.52	0.88	CC[C@H](C)[C@@H]1NC(=O)[C@H](Cc2ccc(O)cc2)NC(=O)[C@H](O)CSSC[C@@H](C(=O)NCC(=O)N[C@@H](CC(C)C)C(=O)NCC(N)=O)NC(=O)[C@H](CC(N)=O)NC(=O)[C@H]([C@@H](C)O)NC1=O (YITNCGLG-NH2; linker N-5 via X1)	218	1002	623	950	54500	–
